Results taken from PubChem BioAssay (NCI).
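Results reflect a 48-hour exposure of cells in 96-well plates to compound at five concentrations. Definition used: TGI = concentration required for complete inhibition of growth.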

Assays:
Experiment in all cases: NCI anticancer screen, dose series, 48 h
HS 578T breast = test system: HS 578T breast
HCC-2998 colon = test system: HCC-2998 colon
SNB-19 CNS = test system: SNB-19 CNS
SR leukemia = test system: SR leukemia
RPMI-8226 leukemia = test system: RPMI-8226 leukemia
NCI/ADR-RES ovarian = test system: NCI/ADR-RES ovarian
NCI-H226 lung = test system: NCI-H226 lung
OVCAR-8 ovarian = test system: OVCAR-8 ovarian
SN12C renal = test system: SN12C renal
NCI-H23 lung = test system: NCI-H23 lung
MDA-MB-435 = test system: MDA-MB-435
U251 CNS = test system: U251 CNS
ACHN renal = test system: ACHN renal
HCT-116 colon = test system: HCT-116 colon
NCI-H460 lung = test system: NCI-H460 lung
KM12 colon = test system: KM12 colon
SK-MEL-5 melanoma = test system: SK-MEL-5 melanoma
BT-549 breast = test system: BT-549 breast
IGROV1 ovarian = test system: IGROV1 ovarian
SK-MEL-28 melanoma = test system: SK-MEL-28 melanoma
A549 NSCLC = test system: A549 NSCLC
OVCAR-5 ovarian = test system: OVCAR-5 ovarian
SF-268 CNS = test system: SF-268 CNS
DU-145 prostate = test system: DU-145 prostate
OVCAR-4 ovarian = test system: OVCAR-4 ovarian
HOP-92 NSCLC = test system: HOP-92 NSCLC
NCI-H522 lung = test system: NCI-H522 lung
786-0 renal = test system: 786-0 renal
UACC-257 melanoma = test system: UACC-257 melanoma
COLO 205 colon = test system: COLO 205 colon
T-47D breast = test system: T-47D breast
TK-10 renal = test system: TK-10 renal
SK-MEL-2 melanoma = test system: SK-MEL-2 melanoma
CAKI-1 renal = test system: CAKI-1 renal
UO-31 renal = test system: UO-31 renal
HOP-62 NSCLC = test system: HOP-62 NSCLC
SNB-75 CNS = test system: SNB-75 CNS
MDA-N = test system: MDA-N
M14 melanoma = test system: M14 melanoma
PC-3 prostate = test system: PC-3 prostate
HCT-15 colon = test system: HCT-15 colon
OVCAR-3 ovarian = test system: OVCAR-3 ovarian
LOX IMVI melanoma = test system: LOX IMVI melanoma
A498 renal = test system: A498 renal
K-562 leukemia = test system: K-562 leukemia
SW-620 colon = test system: SW-620 colon
MALME-3M melanoma = test system: MALME-3M melanoma
MDA-MB-231 breast = test system: MDA-MB-231 breast
UACC-62 melanoma = test system: UACC-62 melanoma
HT29 colon = test system: HT29 colon
MCF7 breast = test system: MCF7 breast
MOLT-4 leukemia = test system: MOLT-4 leukemia
CCRF-CEM leukemia = test system: CCRF-CEM leukemia
EKVX NSCLC = test system: EKVX NSCLC
HL-60(TB) leukemia = test system: HL-60(TB) leukemia
SF-539 CNS = test system: SF-539 CNS
RXF 393 renal = test system: RXF 393 renal
SF-295 CNS = test system: SF-295 CNS
SK-OV-3 ovarian = test system: SK-OV-3 ovarian

Measured: TGI

N#Cc1c(N)nc(-c2ccc(Cl)cc2)c2c1-c1ccccc1S(=O)(=O)CC2
93.9 µM: SNB-19 CNS
> 100 µM: HS 578T breast | HCC-2998 colon | SR leukemia | RPMI-8226 leukemia | NCI/ADR-RES ovarian | NCI-H226 lung | OVCAR-8 ovarian | SN12C renal | NCI-H23 lung | MDA-MB-435 | U251 CNS | ACHN renal | HCT-116 colon | NCI-H460 lung | KM12 colon | SK-MEL-5 melanoma | BT-549 breast | IGROV1 ovarian | SK-MEL-28 melanoma | A549 NSCLC | OVCAR-5 ovarian | SF-268 CNS | DU-145 prostate | OVCAR-4 ovarian | HOP-92 NSCLC | NCI-H522 lung | 786-0 renal | UACC-257 melanoma | COLO 205 colon | T-47D breast | TK-10 renal | SK-MEL-2 melanoma | CAKI-1 renal | UO-31 renal | HOP-62 NSCLC | SNB-75 CNS | MDA-N | M14 melanoma | PC-3 prostate | HCT-15 colon | OVCAR-3 ovarian | LOX IMVI melanoma | A498 renal | K-562 leukemia | SW-620 colon | MALME-3M melanoma | MDA-MB-231 breast | UACC-62 melanoma | HT29 colon

Cc1ccc(Nc2n[nH]c(=S)s2)cc1C
> 100 µM: HS 578T breast | HCC-2998 colon | SNB-19 CNS | RPMI-8226 leukemia | NCI/ADR-RES ovarian | OVCAR-8 ovarian | SN12C renal | NCI-H23 lung | MCF7 breast | MDA-MB-435 | MOLT-4 leukemia | U251 CNS | ACHN renal | HCT-116 colon | NCI-H460 lung | KM12 colon | SK-MEL-5 melanoma | BT-549 breast | IGROV1 ovarian | CCRF-CEM leukemia | SK-MEL-28 melanoma | A549 NSCLC | OVCAR-5 ovarian | SF-268 CNS | DU-145 prostate | OVCAR-4 ovarian | HOP-92 NSCLC | NCI-H522 lung | 786-0 renal | UACC-257 melanoma | COLO 205 colon | EKVX NSCLC | T-47D breast | TK-10 renal | SK-MEL-2 melanoma | HL-60(TB) leukemia | CAKI-1 renal | SF-539 CNS | UO-31 renal | HOP-62 NSCLC | SNB-75 CNS | MDA-N | RXF 393 renal | M14 melanoma | PC-3 prostate | HCT-15 colon | OVCAR-3 ovarian | SF-295 CNS | LOX IMVI melanoma | A498 renal | K-562 leukemia | SK-OV-3 ovarian | SW-620 colon | MALME-3M melanoma | MDA-MB-231 breast | UACC-62 melanoma | HT29 colon

CN(C)CCCSc1nc2ccccc2[nH]1
> 100 µM: HS 578T breast | HCC-2998 colon | SNB-19 CNS | SR leukemia | RPMI-8226 leukemia | NCI/ADR-RES ovarian | NCI-H226 lung | OVCAR-8 ovarian | SN12C renal | NCI-H23 lung | MCF7 breast | MDA-MB-435 | U251 CNS | ACHN renal | HCT-116 colon | NCI-H460 lung | KM12 colon | SK-MEL-5 melanoma | BT-549 breast | IGROV1 ovarian | SK-MEL-28 melanoma | A549 NSCLC | OVCAR-5 ovarian | SF-268 CNS | DU-145 prostate | OVCAR-4 ovarian | HOP-92 NSCLC | NCI-H522 lung | 786-0 renal | UACC-257 melanoma | COLO 205 colon | EKVX NSCLC | T-47D breast | TK-10 renal | SK-MEL-2 melanoma | CAKI-1 renal | UO-31 renal | HOP-62 NSCLC | SNB-75 CNS | MDA-N | RXF 393 renal | M14 melanoma | HCT-15 colon | OVCAR-3 ovarian | SF-295 CNS | LOX IMVI melanoma | A498 renal | K-562 leukemia | SK-OV-3 ovarian | SW-620 colon | MALME-3M melanoma | MDA-MB-231 breast | UACC-62 melanoma | HT29 colon

CCCCCCCCCCCCCCCCCCNC(=O)C(N)Cc1ccc(OCc2ccccc2)cn1 (configuration not stated)
41.2 µM: LOX IMVI melanoma
40 µM: HOP-62 NSCLC
46.8 µM: EKVX NSCLC
32.2 µM: UACC-62 melanoma
37.3 µM: OVCAR-8 ovarian | HCT-15 colon
42.9 µM: MALME-3M melanoma
55 µM: MOLT-4 leukemia
35.4 µM: U251 CNS | A498 renal
49.3 µM: SN12C renal
31.7 µM: NCI-H23 lung
51.1 µM: HS 578T breast
56.4 µM: ACHN renal
24.2 µM: HCC-2998 colon
80.6 µM: RPMI-8226 leukemia
38.5 µM: NCI-H522 lung
35.8 µM: MCF7 breast
41.6 µM: 786-0 renal
95.1 µM: K-562 leukemia
43.1 µM: OVCAR-5 ovarian
34 µM: OVCAR-4 ovarian
41.3 µM: HOP-92 NSCLC
38.3 µM: MDA-MB-231 breast
43.7 µM: UACC-257 melanoma
47.4 µM: SNB-75 CNS
29.9 µM: NCI-H460 lung
35.5 µM: KM12 colon
38.4 µM: NCI/ADR-RES ovarian
38.2 µM: HCT-116 colon
37.1 µM: HL-60(TB) leukemia
28.8 µM: COLO 205 colon | TK-10 renal
31.9 µM: SK-MEL-5 melanoma
78.9 µM: CCRF-CEM leukemia
27.7 µM: PC-3 prostate
32.7 µM: CAKI-1 renal
43.4 µM: SF-268 CNS | DU-145 prostate
57.3 µM: BT-549 breast
32.5 µM: MDA-MB-435 | UO-31 renal
42.5 µM: SNB-19 CNS
32.6 µM: IGROV1 ovarian
50.8 µM: SK-MEL-28 melanoma
33.3 µM: SK-MEL-2 melanoma | M14 melanoma
59.1 µM: SF-295 CNS
40.2 µM: SK-OV-3 ovarian
50.7 µM: T-47D breast
49.2 µM: MDA-N
59.4 µM: SW-620 colon
42.4 µM: RXF 393 renal
49.6 µM: OVCAR-3 ovarian
42.6 µM: A549 NSCLC
31.2 µM: HT29 colon
